System: immunoglobulin light chain protein WIL-FL T46L
Assay: Differential scanning fluorimetry (thermal shift) assay
Type: binding
Conditions: temperature shift [Tm]compound-[Tm]vehicle, recombinant WIL-FL T46L

SMILES | DSF (Table B) | DSF (Table A)
Cc1cc(N2CC[C@](C)(c3ccccc3)C2)cn2nc(C34CC(COCC(=O)O)(CO3)C4)nc12 [Compound 459, 2-[[1-[8-methyl-6-[(3R)-3-methyl-3-phenyl-pyrrolidin-1-yl]-[1,2,4]triazolo[1,5-a]pyridin-2-yl]-2-oxabicyclo[2.1.1]hexan-4-yl]methoxy]acetic acid] | ***** (>2.5° C.=*****) | –
CCS(=O)(=O)NCC12COC(c3nc4c(C)cc(N5CC[C@](C)(c6ccccc6)C5)cn4n3)(C1)C2 [Compound 463] | ***** (>2.5° C.=*****) | –
Cc1cc(N2CCC(C)(c3nn[nH]n3)C2)cn2nc(C(=O)N3C[C@@H]4CN(c5cccc(C(=O)O)n5)C[C@@H]4C3)nc12 (stereo partly shown) [Compound 401, 6-[5-[8-methyl-6-[3-methyl-3-(2H-tetrazol-5-yl)pyrrolidin-1-yl]-[1,2,4]triazolo[1,5-a]pyridine-2-carbonyl]-1,3,3a, 4,6,6a-hexahydropyrrolo[3,4-c]pyrrol-2-yl]pyridine-2-carboxylic acid] | – | * (0-0.5° C.=*)
CCC(=O)N1CC(O)C(NC(=O)c2nc3c(C)cc(N4CC[C@](C)(c5ccccc5)C4)cn3n2)C1 (stereo partly shown) [Compound 108] | – | ***** (>2.5° C.=*****)
Cc1cc(N2CC[C@](C)(c3ccccc3)C2)cn2nc(C(=O)N3CC[C@@]4(CCN(C(=O)C56CCC(C(=O)O)(CC5)OC6)C4)C3)nc12 [Compound 732] | ***** (>2.5° C.=*****) | –
Cc1cc(N2CC[C@](C)(c3ccccc3)C2)cn2nc(C(=O)N3CCC34CN(c3cccc(C(=O)O)n3)C4)nc12 [Compound 615] | **** (>1.5-2.5° C.=****) | –
Cc1cc(N2CC[C@](C)(c3ccccc3)C2)cn2nc(C(=O)N3CCc4c(nnn4C4CCC(C(=O)O)C4)C3)nc12 (stereo partly shown) [Compound 638] | ***** (>2.5° C.=*****) | –
Cc1cc(N2CC[C@](C)(c3ccccc3)C2)cn2nc(C(=O)N3CCOC4(C3)CN(c3cccc(C(=O)O)n3)C4)nc12 [Compound 286] | – | ***** (>2.5° C.=*****)
Cc1cc(N2CC(CF)(c3ccccc3)C2)cn2nc(C(=O)N3CC[C@@]4(CCN(c5cccc(C(=O)O)n5)C4)C3)nc12 [Compound 752, 6-[(5R)-2-[6-[3-(fluoromethyl)-3-phenyl-azetidin-1-yl]-8-methyl-[1,2,4]triazolo[1,5-a]pyridine-2-carbonyl]-2,7-diazaspiro[4.4]nonan-7-yl]pyridine-2-carboxylic acid] | ***** (>2.5° C.=*****) | –
CCC(=O)NC12CC(C)(C1)OC2c1nc2c(C)cc(N3CC[C@](C)(c4ccccc4)C3)cn2n1 (stereo partly drawn) [Compound 475, N-[1-methyl-3-[8-methyl-6-[(3R)-3-methyl-3-phenyl-pyrrolidin-1-yl]-[1,2,4]triazolo[1,5-a]pyridin-2-yl]-2-oxabicyclo[2.1.1]hexan-4-yl]propanamide] | ***** (>2.5° C.=*****) | –
Cc1cc(N2CC[C@](C)(c3ccccc3)C2)cn2nc(C(=O)N[C@H]3C[C@]4(CCN(c5cccc(C(=O)O)n5)C4)C3)nc12 [Compound 623] | ***** (>2.5° C.=*****) | –
Cc1cc(OC[C@H](C)c2cccc(F)c2)cn2nc(C(=O)N3CC[C@@](C)(O)C3)nc12 [Compound 309] | – | **** (>1.5-2.5° C.=****)
Cc1cc(N2CC[C@](C)(c3ccccc3)C2)cn2nc(C(=O)N3CCC4(CCN(c5cccc(N)n5)C4)C3)nc12 (stereo partly shown) [Compound 248] | – | ***** (>2.5° C.=*****)
Cc1cc(N2CC[C@](C)(c3ccccc3)C2)cn2nc(C34CC(CO)(C3)C(C)(C)O4)nc12 [Compound 473, (R)-(3,3-dimethyl-1-(8-methyl-6-(3-methyl-3-phenylpyrrolidin-1-yl)-[1,2,4]triazolo[1,5-a]pyridin-2-yl)-2-oxabicyclo[2.1.1]hexan-4-yl)methanol] | ***** (>2.5° C.=*****) | –
COC(CO)CNC(=O)c1nc2c(C)cc(N3CC[C@](C)(c4ccccc4)C3)cn2n1 (stereo partly shown) [Compound 148] | – | ***** (>2.5° C.=*****)
Cc1cc(N2CC[C@](C)(c3ccccc3)C2)cn2nc(C(=O)NC3CCC4CCC3N4c3cccc(C(=O)O)n3)nc12 (stereo partly shown) [Compound 620] | ***** (>2.5° C.=*****) | –

— patent US20260285857A1, “BICYCLIC AND HETEROCYCLIC AMIDE COMPOUNDS” (priority 2024, published 2026)
